Test results published in patent publication US20100152156A1, “2-Azetidinone Derivatives For The Treatment Of Hyperlipidaemic Diseases” (ASTRAZENECA AB, priority 2005, published 2010).

How the values were obtained:
[1] = Absorption in a Caco-2 cells model; type: in vitro ADME; settings: human
Method: Absorption of the compounds of formula (I) was tested in a Caco-2 cells model (Gastroenterology 1989, 96, 736): […]

[2] = test system: ^14C-cholesterol absorption; assay: In vivo testing of cholesterol absorption inhibitors (A); settings: procedure A, C57BL/6 female mice
Method: In Vivo Testing of Cholesterol Absorption Inhibitors (A)
C57BL/6 female mice were maintained on regular chow diet and housed in individual cages to collect faeces. Mice were fasted for 3 hours and then gavaged with vehicle or compound. Half an hour later the mice were gavaged with radiolabelled cholesterol. Six hours after the ^14C-cholesterol gavage blood samples were taken via the tail and plasma prepared to determine how much cholesterol were absorbed. 24 hours after the gavage of ^14C-cholesterol the mice were bled and plasma were prepared for analysis. Faeces were collected for 24 hours to assess absorption efficiency.

SMILES | Papp [1] [×10⁻⁶ cm/s] | inhibition of ^14C-cholesterol absorption ([2]; administration of 0.2 mmol/kg by gavage) [%] | inhibition of ^14C-cholesterol absorption ([2]; administration of 0.2 μmol/kg by gavage) [%]
CC(C)(C)[C@@H](NC(=O)CNC(=O)COc1ccc([C@@H]2[C@@H](SCC(O)c3ccc(F)cc3)C(=O)N2c2ccc(F)cc2)cc1)C(=O)NCC(=O)O (single isomer, unassigned) [Example 6, N-{[4-((2R,3R)-1-(4-fluorophenyl)-3-{[(2R or S)-2-(4-fluorophenyl)-2-hydroxyethyl]thio}-4-oxoazetidin-2-yl)phenoxy]acetyl}glycyl-3-methyl-D-valylglycine] | 0.12 | 49 | –
CC(C)(C)[C@@H](NC(=O)CNC(=O)COc1ccc([C@@H]2[C@@H](SCC(O)c3ccc(F)cc3)C(=O)N2c2ccc(F)cc2)cc1)C(=O)N[C@H](CO)C(=O)O (single isomer, unassigned) [Example 7, N-{[4-((2R,3R)-1-(4-fluorophenyl)-3-{[(2R or S)-2-(4-fluorophenyl)-2-hydroxyethyl]thio}-4-oxoazetidin-2-yl)phenoxy]acetyl}glycyl-3-methyl-D-valyl-D-serine] | – | – | 46
